Values joined by “and” are separate entries in the source; they are usually repeats but may differ in a detail not shown here. Identical values can stand only once. Like-named read-outs stand apart in the source and are kept apart here.
Experiments:
human JMJD5 [1] = molecular target: T1, human JMJD5 (Homo sapiens, UniProt Q8N371); test: SPE-MS JMJD5 turnover and kinetic assay (RPS6_128–148 hydroxylation); format: biochemical; conditions: for JMJD5 (%): RPS6_128–148 hydroxylation with the compound as cosubstrate: absence of 2OG, JMJD5 0.15 μM, 2OG derivative 400 μM, Fe(II) 20 μM, RPS6_128–148 2.0 μM
T1 construct: made in house; host or cells: Escherichia coli BL21(DE3)
T1 sequence (Q8N371 whole entry): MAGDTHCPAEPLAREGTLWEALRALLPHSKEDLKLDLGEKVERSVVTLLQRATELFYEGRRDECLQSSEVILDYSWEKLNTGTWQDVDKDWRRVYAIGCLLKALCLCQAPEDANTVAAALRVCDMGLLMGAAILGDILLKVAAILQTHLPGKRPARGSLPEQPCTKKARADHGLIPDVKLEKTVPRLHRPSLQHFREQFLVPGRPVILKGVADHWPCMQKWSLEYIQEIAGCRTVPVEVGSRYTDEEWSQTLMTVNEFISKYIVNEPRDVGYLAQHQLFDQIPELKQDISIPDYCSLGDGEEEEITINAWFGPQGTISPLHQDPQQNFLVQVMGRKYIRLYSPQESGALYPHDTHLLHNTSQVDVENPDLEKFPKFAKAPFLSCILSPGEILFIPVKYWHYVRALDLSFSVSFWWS
Experimental: JMJD5 turnover assays for time course and kinetic experiments were performed in 96-well polypropylene assay plates (Greiner) with either […] total reaction volume using the concentrations given in the manuscript or ESI, ^† and JMJD5-catalysed substrate hydroxylation was directly monitored using SPE-MS. […] Assay samples were aspirated under vacuum for 0.6 s and loaded onto a C4 solid phase extraction (SPE) cartridge. After loading, the C4 SPE cartridge was washed with 0.1%v/v aqueous formic acid to remove non-volatile buffer salts (5.5 s, 1.5 mL min^−1). The peptide was eluted from the SPE cartridge with 0.1%v/v aqueous formic acid in 80/20v/v acetonitrile/water into the mass spectrometer (5.5 s, 1.5 mL min^−1) and the SPE cartridge re-equilibrated with 0.1%v/v aqueous formic acid (0.5 s, 1.5 mL min^−1). The mass spectrometer was operated using the MassHunter Workstation B.08.00 software (Agilent), the mass spectrometer parameters were: capillary voltage (4000 V), nozzle voltage (1000 V), fragmentor voltage (365 V), gas temperature (280 °C), gas flow (13 L min^−1), sheath gas temperature (350 °C), sheath gas flow (12 L min^−1). […] Data were exported into Microsoft Excel and used to calculate the % conversion of the hydroxylation reaction using the equation: % conversion = 100 × (integral product peptide)/(integral substrate peptide + integral product peptide).
parameters (continues on the following two pages). Maximum velocities (vapp ) and Michaelis constants (Kapp)
of JMJD5 were determined in independent triplicates, monitoring the JMJD5-catalyzed hydroxylation of the
SPE-MS, as described (Experimental Section).
20 °C). Measurement times were normalized to the first sample injection analyzed after the addition of JMJD5 to
shown as the mean of three independent runs (n = 3; mean ± standard deviation, SD).
hexahydrate (20 μM, (NH4)2Fe(SO4)2·6H2O); and (b) hydroxylation rates used to determine kinetic parameters of
(1 picture or pasted object on this page, not shown here)
Maximum velocities (vapp ) and
Michaelis constants (Kapp) of JMJD5 were determined in independent triplicates for (1R)-3-
(carboxycarbonyl)cyclopentane-1-carboxylic acid (14), monitoring the JMJD5-catalyzed hydroxylation of the
as described (Experimental Section).
pH 7.5, 20 °C). Measurement times were normalized to the first sample injection analyzed after the addition of
(§1) Data are shown as the mean of three independent runs (n = 3; mean ± SD).
to determine kinetic parameters of JMJD5 for 14.

human JMJD5 [2] = molecular target: T1, human JMJD5; test: SPE-MS JMJD5 inhibition assay; format: biochemical; conditions: JMJD5 0.15 μM, 2OG 2.0 μM, Fe(II) 2.0 μM, LAA 100 μM, RPS6_128–148 2.0 μM; read-out: IC50 JMJD5
Experimental: Solutions of the small-molecules (100% DMSO) were dry dispensed across 384 well polypropylene V-bottom assay microplates (Greiner) in an approximately three-fold and 11-point dilution series (100 μM inhibitor top concentration; the final DMSO assay concentration was kept constant at 0.5%v/v) using an ECHO 550 acoustic dispenser (Labcyte). […] Each reaction was performed in technical duplicates in adjacent wells of the assay plates; additionally, assays were performed in two independent duplicates on different days using different inhibitor solutions.
The Enzyme Mixture (25 μL per well), containing 0.3 μM His6-thioredoxin-tagged JMJD5 in buffer (50 mM MOPS, pH 7.5), was dispensed across the inhibitor-containing 384-well plates with a multidrop dispenser (ThermoFischer Scientific) at 20 °C under an ambient atmosphere. The plates were subsequently centrifuged (1000 rpm, 5 s) and incubated for 15 min at 20 °C. […] The plates were centrifuged (1000 rpm, 5 s) and, after incubating for 30 min, the enzyme reaction was stopped by the addition of 10%v/v aqueous formic acid (5 μL per well). The plates were then centrifuged (1000 rpm, 30 s) and analyzed by MS.
Z′-Factors were calculated according to the cited literature using Microsoft Excel.[61]

human KDM4E [3] = molecular target: T2, human KDM4E (Homo sapiens, UniProt B2RXH2); test: KDM4E SPE-MS turnover and kinetic assay (H3 K9(me3) peptide demethylation); format: biochemical; conditions: for KDM4E (%): substrate demethylation with the compound as cosubstrate: absence of 2OG, KDM4E 0.15 μM, 2OG derivative 330 μM, Fe(II) 50 μM, ARTAQTARK(me3)STGGIA 10.0 μM
T2 sequence (B2RXH2 1-506): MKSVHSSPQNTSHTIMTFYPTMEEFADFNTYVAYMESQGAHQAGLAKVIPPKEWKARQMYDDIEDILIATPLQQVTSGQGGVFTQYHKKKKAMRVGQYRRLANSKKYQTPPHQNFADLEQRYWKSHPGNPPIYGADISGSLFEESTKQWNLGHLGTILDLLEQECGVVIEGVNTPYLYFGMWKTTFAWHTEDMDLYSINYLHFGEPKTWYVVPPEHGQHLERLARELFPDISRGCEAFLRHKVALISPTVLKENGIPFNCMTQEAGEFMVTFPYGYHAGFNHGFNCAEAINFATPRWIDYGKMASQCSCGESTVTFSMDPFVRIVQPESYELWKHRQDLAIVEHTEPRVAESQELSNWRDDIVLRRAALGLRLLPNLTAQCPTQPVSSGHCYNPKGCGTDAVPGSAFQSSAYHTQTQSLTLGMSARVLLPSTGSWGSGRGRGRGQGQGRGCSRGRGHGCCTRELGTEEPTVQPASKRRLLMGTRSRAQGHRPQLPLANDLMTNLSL
Experimental: KDM4E turnover and inhibition assays were performed as reported using recombinant human KDM4E and a histone 3 K9(me3) derivative (i.e. […](me3)STGGIA)[41] as substrate.[95]
Supplementary Figure S3. Rates of KDM4E-catalyzed Nε-trimethyl lysine demethylations of a histone 3- […]
Maximum velocities (vapp ) and Michaelis […]
catalyzed Nε-trimethyl lysine demethylation of the histone 3 K9(me3)-derived peptide […]
(me3)STGGIA2 by SPE-MS as described;3 note that mono-, di-, and tri-demethylated product […]
buffer (50 mM MES, pH 7.0, 20 °C). Measurement times were normalized to the first sample injection analyzed […]
as §1
(a) Time course of the KDM4E-catalyzed Nε-trimethyl lysine demethylation reaction of the […]

human KDM4E [4] = molecular target: T2, human KDM4E; test: KDM4E SPE-MS inhibition assay; format: biochemical; conditions: KDM4E 0.15 μM, peptide 10.0 μM, LAA 100 μM, FAS 10 μM, 2OG 10 μM
Experimental: KDM4E turnover and inhibition assays were performed as reported using recombinant human KDM4E and a histone 3 K9(me3) derivative (i.e. […](me3)STGGIA)[41] as substrate.[95] […]

human FIH [5] = conditions: absence of 2OG, FIH 0.15 μM, 2OG derivative 330 μM, Fe(II) 50 μM, HIF-1α788–822 5.0 μM, cited from earlier work
human FIH [6] = test system: human FIH; parameters: method as in ref 10 (ESI); conditions: FIH 0.15 μM, HIF-1α788-822 5.0 μM, 2OG 10 μM; ref 10 (ESI); cited from earlier work
human AspH [7] = conditions: absence of 2OG, AspH 0.1 μM, 2OG derivative 330 μM, Fe(II) 50 μM, hFX-CP101–119 2.0 μM, cited from earlier work
human AspH [8] = test system: human AspH; parameters: method as in ref 9 (ESI); conditions: AspH 0.05 μM, hFX-CP101-119 1.0 μM, 2OG 3.0 μM; ref 9 (ESI); cited from earlier work

Compound	JMJD5 (%): RPS6_128–148 hydroxylation with the compound as cosubstrate (human JMJD5 [1]; listed as Entry 2)	JMJD5-catalyzed RPS6_128–148 hydroxylation, time course (human JMJD5 [1]; after 50 min, 10 μM cosubstrate, 0.15 μM JMJD5, 10 μM Fe(II), 2.0 μM RPS6_128–148)	IC50 (human JMJD5 [2])	fold less efficient KDM4E cosubstrate than 2OG (human KDM4E [3])	KDM4E (%): substrate demethylation with the compound as cosubstrate (human KDM4E [3]; listed as Entry 2)	IC50 (human KDM4E [4])	FIH (%): substrate hydroxylation with the compound as cosubstrate (human FIH [5]; listed as Entry 2)	IC50 (human FIH [6])	AspH (%): substrate hydroxylation with the compound as cosubstrate (human AspH [7]; listed as Entry 2)	IC50 (human AspH [8])	KDM4E (%): substrate demethylation with the compound as cosubstrate (human KDM4E [3]; listed as Entry 22)	FIH (%): substrate hydroxylation with the compound as cosubstrate (human FIH [5]; listed as Entry 22)	AspH (%): substrate hydroxylation with the compound as cosubstrate (human AspH [7]; listed as Entry 22)	JMJD5 (%): RPS6_128–148 hydroxylation with the compound as cosubstrate (human JMJD5 [1])	KDM4E (%): substrate demethylation with the compound as cosubstrate (human KDM4E [3])	FIH (%): substrate hydroxylation with the compound as cosubstrate (human FIH [5])	AspH (%): substrate hydroxylation with the compound as cosubstrate (human AspH [7])	KDM4E (%): substrate demethylation with the compound as cosubstrate (human KDM4E [3]; listed as Entry 13)	FIH (%): substrate hydroxylation with the compound as cosubstrate (human FIH [5]; listed as Entry 13)	AspH (%): substrate hydroxylation with the compound as cosubstrate (human AspH [7]; listed as Entry 13)
CC(CC(=O)O)C(=O)C(=O)O (centres unmarked) [2OG derivative 1, 3-methyl-2OG]	~ 10%	~20%	> 50 µM	~7 fold	~ 10%	> 30 µM	~ 55%	> 50 µM	> 95%	> 50 µM										
O=C(O)C(=O)C1CC[C@@H](C(=O)O)C1 (mixture of isomers) [2OG derivative 14, (1R)-3-(carboxycarbonyl)cyclopentane-1-carboxylic acid]						27.9 ± 3.5 µM		> 50 µM			< 1%	~ 2%	~ 15%							
O=C(O)C(=O)C1(C(=O)O)CC1 [2OG derivative 25]			> 50 µM			> 50 µM		> 50 µM		3.3 ± 1 µM				< 1%	< 1%	< 1%	< 1%			
O=C(O)C(=O)c1ccc(C(=O)O)c(F)c1 [2OG derivative 29]			> 50 µM			> 50 µM		> 50 µM		> 50 µM				< 1%	< 1%	< 1%	~ 8%			
O=C(O)C(=O)C1C2C=CC(C2)C1C(=O)O (racemic) [2OG derivative 26]			> 50 µM			> 50 µM		> 50 µM						< 1%	< 1%	< 1%	< 1%			
4-methyl-2OG [2OG derivative 8]			> 50 µM					> 50 µM		> 50 µM				~ 10%	< 1%	~ 45%	~ 10%			
CC(C)(CC(=O)C(=O)O)C(=O)O [2OG derivative 9, 4,4-dimethyl-2OG]						> 30 µM		> 50 µM		~0.3 µM								< 1%	< 5%	< 1%
4-(2-naphthyl)methyl-2OG [2OG derivative 23]			> 50 µM			6 to 7 µM and ~6.9 µM		2.5 ± 0.1 µM						< 1%	< 1%	< 1%	< 1%			
O=C(O)C(=O)c1ccc(C(=O)O)s1 [2OG derivative 34]			> 30 µM			> 50 µM		> 50 µM						< 1%	< 1%	< 1%	~ 15%			

Reference: article PMC10246557, “Kinetic and inhibition studies on human Jumonji-C (JmjC) domain-containing protein 5” (RSC Chemical Biology, 2023)
